In patent US12551565B2, “CD44 targeted multi-arm conjugate” (priority 2019, dated 2026):

System: human small cell lung cancer cell NCI-H446
Test: Xenograft model of human small cell lung cancer cell NCI-H446 in nude mice
Type: in vivo, BALB/c nude mice
Settings: tail vein injection, QW×3, 6 mg·kg^−1

In the case of `CCc1c2c(nc3ccc(OC(=O)N4CCC(N5CCCCC5)CC4)cc13)-c1cc3c(c(=O)n1C2)COC(=O)[C@]3(O)CC` [Irinotecan], the “Relative tumor proliferation rate (% T/C)” value is reported as 66.0%.
